{
  "source": "ChEMBL document CHEMBL3244025",
  "about": "“Carbocyclic arabinosyladenine, an adenosine deaminase resistant antiviral agent” (J Med Chem, 1977)",
  "system": "Vaccinia virus",
  "experiment": "Antiviral activity against Vaccinia virus Lederle Chorioallantoic infected in human Hep2 cells assessed as inhibition of virus-induced cytopathogenic effect",
  "assay_type": "functional, Orthopoxvirus vaccinia, HEp-2",
  "data": [
    {"compound": "Nc1ncnc2c1ncn2[C@@H]1C[C@H](CO)[C@@H](O)[C@@H]1O", "note": "(racemic)", "values": [
      {"measurement": "MED50", "result": 9, "unit": "µg/mL"}
    ]}
  ]
}
